Data as given in ChEMBL document CHEMBL5223109, “The discovery of BMS-737 as a potent, CYP17 lyase-selective inhibitor for the treatment of castration-resistant prostate cancer” (Bioorg Med Chem Lett, 2022).

How the values were obtained:
[1] = target: T1, Steroid 17-alpha-hydroxylase/17,20 lyase (Homo sapiens, UniProt P05093); experiment: Inhibition of human CYP17A1 hydroxylase activity; assay type: ADME
T1 sequence (P05093 whole entry): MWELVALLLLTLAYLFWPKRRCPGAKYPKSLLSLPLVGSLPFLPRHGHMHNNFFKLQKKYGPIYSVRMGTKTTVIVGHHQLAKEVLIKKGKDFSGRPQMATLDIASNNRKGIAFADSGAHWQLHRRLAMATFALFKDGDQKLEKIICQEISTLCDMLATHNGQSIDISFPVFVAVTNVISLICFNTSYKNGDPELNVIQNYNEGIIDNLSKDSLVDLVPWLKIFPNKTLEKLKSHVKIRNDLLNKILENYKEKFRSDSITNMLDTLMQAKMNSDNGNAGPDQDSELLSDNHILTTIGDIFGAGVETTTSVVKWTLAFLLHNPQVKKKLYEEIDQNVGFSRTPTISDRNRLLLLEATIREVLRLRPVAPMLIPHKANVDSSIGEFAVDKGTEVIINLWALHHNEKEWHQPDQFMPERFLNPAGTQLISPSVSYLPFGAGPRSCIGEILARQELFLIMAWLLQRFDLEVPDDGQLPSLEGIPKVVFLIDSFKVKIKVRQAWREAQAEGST

[2] = Metabolic stability in human liver microsome assessed as half-life; assay type: ADME; conditions: liver microsomes
[3] = target: T1, Steroid 17-alpha-hydroxylase/17,20 lyase; experiment: Selectivity ratio for inhibition of human CYP17A1 hydroxylase activity to inhibition of human CYP17A1 lyase activity; assay type: ADME
[4] = target: T2, Nuclear receptor subfamily 1 group I member 2 (Homo sapiens, UniProt O75469); experiment: Inhibition of PXR (unknown origin)
T2 sequence (O75469 whole entry): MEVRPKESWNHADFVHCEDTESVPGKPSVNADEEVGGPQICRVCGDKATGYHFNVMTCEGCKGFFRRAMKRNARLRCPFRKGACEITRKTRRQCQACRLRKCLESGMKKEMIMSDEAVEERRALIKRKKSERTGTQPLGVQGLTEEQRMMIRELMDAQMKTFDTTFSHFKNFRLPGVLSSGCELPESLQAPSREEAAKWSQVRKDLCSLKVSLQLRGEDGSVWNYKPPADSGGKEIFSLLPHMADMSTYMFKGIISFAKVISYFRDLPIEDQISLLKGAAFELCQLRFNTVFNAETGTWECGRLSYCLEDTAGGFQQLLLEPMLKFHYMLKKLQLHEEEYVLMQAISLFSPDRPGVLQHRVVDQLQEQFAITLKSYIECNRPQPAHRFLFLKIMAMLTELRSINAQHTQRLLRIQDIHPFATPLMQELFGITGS

[5] = Metabolic stability in dog liver microsomes assessed as parent compound remaining relative to control; assay type: ADME, Canis lupus familiaris, Microsome
[6] = Metabolic stability in mouse liver microsomes assessed as parent compound remaining; assay type: ADME, Microsome
[7] = Volume of distribution at steady state in cynomolgus monkey at 1 mg/kg, iv; assay type: ADME, organism-based, Macaca fascicularis; conditions: in vivo, read-out: Vdss
[8] = target: T1, Steroid 17-alpha-hydroxylase/17,20 lyase; experiment: Inhibition of human adrenal gland CYP17A1; assay type: ADME, tissue-based
[9] = Clearance in cynomolgus monkey at 1 mg/kg, iv; assay type: ADME, organism-based, Macaca fascicularis; conditions: in vivo
Cytochrome P450 3A4 = Cytochrome P450 3A4 (Homo sapiens, UniProt P08684); experiment: Inhibition of recombinant human CYP3A4; assay type: ADME
[10] = AUC in cynomolgus monkey at 1 mg/kg, po; assay type: ADME, organism-based, Macaca fascicularis; set-up: dose 1 mg/kg, route po; conditions: in vivo
[11] = target: T3, Steroid 17-alpha-hydroxylase/17,20 lyase (Macaca fascicularis, UniProt Q2XVA1); experiment: In vivo inhibition of CYP17A1 in cynomolgus monkey assessed as decrease in testosterone level in blood at 1 mg/kg, po measured upto 24 hrs relative to control; assay type: functional, organism-based; set-up: scale not given: the % may be the effect or the level left
T3 sequence (Q2XVA1 whole entry): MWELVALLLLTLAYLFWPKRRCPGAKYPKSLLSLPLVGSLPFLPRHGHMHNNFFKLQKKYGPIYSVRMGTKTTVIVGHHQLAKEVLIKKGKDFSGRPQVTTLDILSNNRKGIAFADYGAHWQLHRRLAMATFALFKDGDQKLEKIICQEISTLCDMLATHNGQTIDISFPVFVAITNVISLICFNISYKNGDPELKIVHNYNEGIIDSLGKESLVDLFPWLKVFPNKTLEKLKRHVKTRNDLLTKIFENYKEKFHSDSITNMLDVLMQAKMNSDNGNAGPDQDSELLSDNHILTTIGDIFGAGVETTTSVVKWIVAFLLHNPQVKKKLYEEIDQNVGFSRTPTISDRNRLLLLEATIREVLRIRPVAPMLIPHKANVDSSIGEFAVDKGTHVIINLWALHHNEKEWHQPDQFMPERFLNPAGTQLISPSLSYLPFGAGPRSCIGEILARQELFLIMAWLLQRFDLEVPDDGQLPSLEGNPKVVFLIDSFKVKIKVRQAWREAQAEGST

[12] = Oral bioavailability in cynomolgus monkey at 1 mg/kg; assay type: ADME, organism-based, Macaca fascicularis; conditions: in vivo
[13] = target: T3, Steroid 17-alpha-hydroxylase/17,20 lyase; experiment: Inhibition of cynomolgus monkey CYP17A1 lyase activity; assay type: ADME
[14] = Metabolic stability in cynomolgus monkey liver microsomes assessed as parent compound remaining relative to control; assay type: ADME, Macaca fascicularis, Microsome
[15] = Tmax in cynomolgus monkey at 1 mg/kg, po; assay type: ADME, organism-based, Macaca fascicularis; conditions: in vivo
[16] = Metabolic stability in rat liver microsome assessed as half-life; assay type: ADME; conditions: liver microsomes
[17] = target: T3, Steroid 17-alpha-hydroxylase/17,20 lyase; experiment: In vivo inhibition of CYP17A1 in cynomolgus monkey assessed as fold increase in progesterone level in blood at 1 mg/kg, po measured upto 24 hrs; assay type: functional, organism-based
[18] = target: T4, Cytochrome P450 11B1, mitochondrial (Homo sapiens, UniProt P15538); experiment: Inhibition of human CYP11B1; assay type: ADME
T4 sequence (P15538 whole entry): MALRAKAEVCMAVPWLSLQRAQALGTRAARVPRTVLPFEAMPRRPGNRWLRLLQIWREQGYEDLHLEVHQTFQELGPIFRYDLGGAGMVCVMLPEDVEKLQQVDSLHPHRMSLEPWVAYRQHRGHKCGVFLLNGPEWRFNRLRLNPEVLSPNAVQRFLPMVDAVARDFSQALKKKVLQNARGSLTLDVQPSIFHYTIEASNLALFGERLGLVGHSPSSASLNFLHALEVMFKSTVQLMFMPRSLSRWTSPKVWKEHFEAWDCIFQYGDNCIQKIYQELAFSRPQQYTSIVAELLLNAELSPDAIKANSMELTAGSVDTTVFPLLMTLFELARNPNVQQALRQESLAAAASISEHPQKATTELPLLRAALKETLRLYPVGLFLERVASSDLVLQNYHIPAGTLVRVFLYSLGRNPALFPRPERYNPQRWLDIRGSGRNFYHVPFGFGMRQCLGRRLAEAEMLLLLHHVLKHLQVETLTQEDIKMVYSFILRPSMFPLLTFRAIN

[19] = target: T3, Steroid 17-alpha-hydroxylase/17,20 lyase; experiment: In vivo inhibition of CYP17A1 in cynomolgus monkey assessed as change in cortisol level in blood at 1 mg/kg, po measured upto 24 hrs; assay type: functional, organism-based
[20] = target: T3, Steroid 17-alpha-hydroxylase/17,20 lyase; experiment: In vivo inhibition of CYP17A1 in cynomolgus monkey assessed as decrease in testosterone level in blood at 1 mg/kg, po measured at 8 hrs; assay type: functional, organism-based
[21] = target: T1, Steroid 17-alpha-hydroxylase/17,20 lyase; experiment: Inhibition of human CYP17A1 lyase activity; assay type: ADME
[22] = target: T3, Steroid 17-alpha-hydroxylase/17,20 lyase; experiment: Inhibition of cynomolgus monkey adrenal gland CYP17A1; assay type: ADME, tissue-based
[23] = Inhibition of cynomolgus monkey CYP21A2; assay type: ADME, Macaca fascicularis
[24] = target: T3, Steroid 17-alpha-hydroxylase/17,20 lyase; experiment: Inhibition of cynomolgus monkey CYP17A1; assay type: ADME

Sequence of Cytochrome P450 3A4 (P08684 whole entry): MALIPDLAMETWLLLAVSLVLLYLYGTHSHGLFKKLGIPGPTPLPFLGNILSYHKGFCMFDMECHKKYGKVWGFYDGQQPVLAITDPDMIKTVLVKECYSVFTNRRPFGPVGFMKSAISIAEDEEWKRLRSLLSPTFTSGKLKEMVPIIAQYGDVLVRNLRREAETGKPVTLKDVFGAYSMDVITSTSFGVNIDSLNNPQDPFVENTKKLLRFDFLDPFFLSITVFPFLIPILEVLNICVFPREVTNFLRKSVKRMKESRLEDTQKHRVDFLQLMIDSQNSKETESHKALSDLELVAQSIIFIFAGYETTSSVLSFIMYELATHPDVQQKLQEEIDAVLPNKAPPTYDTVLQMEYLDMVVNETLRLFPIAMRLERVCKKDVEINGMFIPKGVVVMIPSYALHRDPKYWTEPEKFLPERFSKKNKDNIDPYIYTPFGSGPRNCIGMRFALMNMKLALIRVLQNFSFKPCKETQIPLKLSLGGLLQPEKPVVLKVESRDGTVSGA

SMILES: Nc1ncncc1-c1ccnc2c1cnn2-c1ccc(F)cc1
- IC50 [1]: 91 nM
- half-life [2]: > 120 min
- Ratio [3]: 11
- IC50 [4]: > 50 µM
- Stability [5]: 86%
- Stability [6]: 85%
- Vd [7]: 3.5 L/kg
- IC50 [8]: 30 nM
- clearance [9]: 2.8 mL/min/kg
- IC50 (Cytochrome P450 3A4): 36 µM
- AUC [10]: 26 µM·h
- Activity [11]: 83%
- bioavailability [12]: 100%
- IC50 [13]: 6 nM
- Stability [14]: 96%
- Tmax [15]: 1 h
- half-life [16]: 72 min
- fold change (FC) [17]: 14
- IC50 [18]: 2610 nM
- inhibition (INH) [19]: Not Active
- Activity [20]: 43 ng/dL
- IC50 [21]: 8 nM
- IC50 [22]: 2 nM
- IC50 [23]: > 10 µM
- IC50 [24]: 2 nM
